# According to the kinase profiling compilation of Christmann-Franck et al. (2016):
# Tests used:
# Test in all cases: radiometric filter-binding kinase assay, Kinase HotSpot
# Settings in all cases: compound 0.5 µM; ATP 10 µM
# DCLK2 (human) = DCLK2 (human) (UniProt Q8N568)
# DAPK1 (human) = DAPK1 (human) (UniProt P53355)
# CLK2 (human) = CLK2 (human) (UniProt P49760)
# PHKG1 (human) = PHKG1 (human) (UniProt Q16816)
# WNK2 (human) = WNK2 (human) (UniProt Q9Y3S1)
# RPS6KB2 (human) = RPS6KB2 (human) (UniProt Q9UBS0)
# HIPK4 (human) = HIPK4 (human) (UniProt Q8NE63)
# CSNK1G3 (human) = CSNK1G3 (human) (UniProt Q9Y6M4)
# [1] = target: TYK2 JH1 catalytic (human) (UniProt P29597)
# AURKB (human) = AURKB (human) (UniProt Q96GD4)
# TSSK2 (human) = TSSK2 (human) (UniProt Q96PF2)
# MAPK9 (human) = MAPK9 (human) (UniProt P45984)
# CDK7 CCNH MNAT1 (human) = CDK7 CCNH MNAT1 (human) (UniProt P50613+P51948+P51946)
# BLK (human) = BLK (human) (UniProt P51451)
# DYRK4 (human) = DYRK4 (human) (UniProt Q9NR20)
# MAP3K9 (human) = MAP3K9 (human) (UniProt P80192)
# EPHB1 (human) = EPHB1 (human) (UniProt P54762)
# GRK5 (human) = GRK5 (human) (UniProt P34947)
# INSR (human) = INSR (human) (UniProt P06213)
# INSR (human), sequence (P06213 whole entry, looked up): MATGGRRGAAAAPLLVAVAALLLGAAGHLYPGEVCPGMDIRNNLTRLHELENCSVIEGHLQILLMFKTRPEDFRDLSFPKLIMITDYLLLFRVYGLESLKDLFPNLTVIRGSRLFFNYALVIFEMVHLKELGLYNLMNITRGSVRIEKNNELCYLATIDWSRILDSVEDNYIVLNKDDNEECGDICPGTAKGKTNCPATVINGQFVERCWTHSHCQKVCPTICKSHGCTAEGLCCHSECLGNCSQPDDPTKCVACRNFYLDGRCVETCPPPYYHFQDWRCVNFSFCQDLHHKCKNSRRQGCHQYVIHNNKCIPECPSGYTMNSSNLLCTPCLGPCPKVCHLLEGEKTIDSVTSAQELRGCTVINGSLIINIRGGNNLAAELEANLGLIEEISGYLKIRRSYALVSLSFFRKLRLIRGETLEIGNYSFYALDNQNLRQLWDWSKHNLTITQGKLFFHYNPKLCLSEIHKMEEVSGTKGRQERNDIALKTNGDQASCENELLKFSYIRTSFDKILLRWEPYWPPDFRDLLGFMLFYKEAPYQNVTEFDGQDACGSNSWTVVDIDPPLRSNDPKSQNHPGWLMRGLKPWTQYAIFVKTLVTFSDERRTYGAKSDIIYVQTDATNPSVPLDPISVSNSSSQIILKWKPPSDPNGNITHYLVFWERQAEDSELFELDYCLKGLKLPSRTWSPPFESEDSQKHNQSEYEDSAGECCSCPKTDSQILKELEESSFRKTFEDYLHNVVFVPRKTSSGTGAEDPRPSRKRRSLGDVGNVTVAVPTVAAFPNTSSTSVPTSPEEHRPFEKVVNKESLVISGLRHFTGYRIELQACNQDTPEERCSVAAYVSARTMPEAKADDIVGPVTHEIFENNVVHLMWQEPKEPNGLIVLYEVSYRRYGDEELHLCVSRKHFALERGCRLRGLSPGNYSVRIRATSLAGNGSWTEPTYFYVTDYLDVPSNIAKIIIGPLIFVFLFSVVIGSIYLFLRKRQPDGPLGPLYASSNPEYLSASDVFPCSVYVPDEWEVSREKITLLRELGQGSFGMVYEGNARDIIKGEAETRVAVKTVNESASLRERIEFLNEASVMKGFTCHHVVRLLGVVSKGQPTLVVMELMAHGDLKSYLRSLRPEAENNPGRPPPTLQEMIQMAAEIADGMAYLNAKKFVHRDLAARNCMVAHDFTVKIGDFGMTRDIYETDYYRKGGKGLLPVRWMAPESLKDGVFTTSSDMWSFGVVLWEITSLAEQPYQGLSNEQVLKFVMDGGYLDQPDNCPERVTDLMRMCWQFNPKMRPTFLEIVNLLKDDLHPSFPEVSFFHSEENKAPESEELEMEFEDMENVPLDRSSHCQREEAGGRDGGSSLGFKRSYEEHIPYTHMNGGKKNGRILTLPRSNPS
# RIPK2 (human) = RIPK2 (human) (UniProt O43353)
# INSRR (human) = INSRR (human) (UniProt P14616)
# PIM1 (human) = PIM1 (human) (UniProt P11309)
# ROCK2 (human) = ROCK2 (human) (UniProt O75116)
# STK11 (human) = STK11 (human) (UniProt Q15831)
# STK11 (human), sequence (Q15831 whole entry, looked up): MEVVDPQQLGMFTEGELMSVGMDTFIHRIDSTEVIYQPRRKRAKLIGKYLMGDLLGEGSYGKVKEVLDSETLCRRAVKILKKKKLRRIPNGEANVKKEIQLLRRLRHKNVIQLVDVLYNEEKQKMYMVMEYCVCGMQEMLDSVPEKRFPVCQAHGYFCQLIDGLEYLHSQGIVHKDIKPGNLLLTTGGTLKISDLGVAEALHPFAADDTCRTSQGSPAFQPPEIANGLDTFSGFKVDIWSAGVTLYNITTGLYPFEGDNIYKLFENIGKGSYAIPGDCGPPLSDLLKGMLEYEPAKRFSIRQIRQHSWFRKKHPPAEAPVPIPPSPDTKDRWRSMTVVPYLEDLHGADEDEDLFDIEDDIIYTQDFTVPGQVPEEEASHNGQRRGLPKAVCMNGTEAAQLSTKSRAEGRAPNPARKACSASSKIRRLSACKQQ
# [2] = tested on: PRKCQ (human), Q04759 [P330L]
# PRKCQ (human), Q04759 [P330L], sequence (Q04759 whole entry P330L, looked up): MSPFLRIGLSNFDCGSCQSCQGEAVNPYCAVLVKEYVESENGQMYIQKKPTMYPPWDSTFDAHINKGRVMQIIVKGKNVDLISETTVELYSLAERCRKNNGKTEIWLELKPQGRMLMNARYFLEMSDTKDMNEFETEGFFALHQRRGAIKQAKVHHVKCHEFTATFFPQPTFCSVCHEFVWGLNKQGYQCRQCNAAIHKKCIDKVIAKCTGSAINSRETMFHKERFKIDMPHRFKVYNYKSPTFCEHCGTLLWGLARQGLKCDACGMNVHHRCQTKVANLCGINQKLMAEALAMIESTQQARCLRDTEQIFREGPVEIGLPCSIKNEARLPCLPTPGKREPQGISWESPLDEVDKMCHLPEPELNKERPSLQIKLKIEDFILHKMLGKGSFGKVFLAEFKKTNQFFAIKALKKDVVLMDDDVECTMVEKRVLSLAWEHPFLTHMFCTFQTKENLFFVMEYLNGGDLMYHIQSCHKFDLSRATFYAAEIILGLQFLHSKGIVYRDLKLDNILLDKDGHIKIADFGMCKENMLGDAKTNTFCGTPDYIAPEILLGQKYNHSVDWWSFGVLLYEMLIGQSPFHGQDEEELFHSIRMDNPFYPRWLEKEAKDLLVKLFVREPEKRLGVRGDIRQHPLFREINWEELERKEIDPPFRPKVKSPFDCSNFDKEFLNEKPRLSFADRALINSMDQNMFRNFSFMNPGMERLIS
# TEC (human) = TEC (human) (UniProt P42680)
# KDR (human) = KDR (human) (UniProt P35968)
# KDR (human), sequence (P35968 whole entry, looked up): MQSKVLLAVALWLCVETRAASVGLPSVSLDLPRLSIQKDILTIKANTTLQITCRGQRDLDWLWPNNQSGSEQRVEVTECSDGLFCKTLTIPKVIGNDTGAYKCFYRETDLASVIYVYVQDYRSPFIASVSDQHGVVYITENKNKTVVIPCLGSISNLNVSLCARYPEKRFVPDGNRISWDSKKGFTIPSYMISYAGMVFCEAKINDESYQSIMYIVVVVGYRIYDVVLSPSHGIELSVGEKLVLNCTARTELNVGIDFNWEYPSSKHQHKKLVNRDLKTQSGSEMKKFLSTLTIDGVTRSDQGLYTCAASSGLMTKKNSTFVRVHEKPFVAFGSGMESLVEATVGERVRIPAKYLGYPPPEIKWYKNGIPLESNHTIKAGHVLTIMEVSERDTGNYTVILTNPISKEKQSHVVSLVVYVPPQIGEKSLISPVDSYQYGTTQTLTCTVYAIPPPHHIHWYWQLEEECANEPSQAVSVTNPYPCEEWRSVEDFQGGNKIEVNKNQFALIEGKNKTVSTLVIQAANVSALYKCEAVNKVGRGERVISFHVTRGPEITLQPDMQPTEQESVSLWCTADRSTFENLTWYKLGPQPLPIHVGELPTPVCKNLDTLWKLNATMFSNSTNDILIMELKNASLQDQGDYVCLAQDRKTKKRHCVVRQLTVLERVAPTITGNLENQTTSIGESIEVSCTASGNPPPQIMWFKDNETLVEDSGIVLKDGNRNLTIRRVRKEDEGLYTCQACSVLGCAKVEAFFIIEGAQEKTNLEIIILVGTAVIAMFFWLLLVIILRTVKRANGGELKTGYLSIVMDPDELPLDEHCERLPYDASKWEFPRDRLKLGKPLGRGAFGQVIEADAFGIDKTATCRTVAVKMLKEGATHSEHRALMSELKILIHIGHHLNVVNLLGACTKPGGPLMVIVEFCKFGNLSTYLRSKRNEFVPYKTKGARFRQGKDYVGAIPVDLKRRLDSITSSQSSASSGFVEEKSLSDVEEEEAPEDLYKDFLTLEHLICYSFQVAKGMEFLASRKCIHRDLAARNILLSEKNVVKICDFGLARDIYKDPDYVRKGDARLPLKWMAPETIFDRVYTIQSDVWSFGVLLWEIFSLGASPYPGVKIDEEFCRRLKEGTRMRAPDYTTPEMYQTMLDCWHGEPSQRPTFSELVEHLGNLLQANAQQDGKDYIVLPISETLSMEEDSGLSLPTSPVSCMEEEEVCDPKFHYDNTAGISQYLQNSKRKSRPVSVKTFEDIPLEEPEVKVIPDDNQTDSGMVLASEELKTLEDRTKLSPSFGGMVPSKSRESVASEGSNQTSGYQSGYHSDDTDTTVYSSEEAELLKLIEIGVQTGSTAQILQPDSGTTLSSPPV
# CSNK1E (human) = CSNK1E (human) (UniProt P49674)
# [3] = tested on: MKNK1 (human), Q9BUB5 [T385D; 165-205 del]
# MKNK1 (human), Q9BUB5 [T385D; 165-205 del], sequence (Q9BUB5 whole entry, looked up, stated change not applied): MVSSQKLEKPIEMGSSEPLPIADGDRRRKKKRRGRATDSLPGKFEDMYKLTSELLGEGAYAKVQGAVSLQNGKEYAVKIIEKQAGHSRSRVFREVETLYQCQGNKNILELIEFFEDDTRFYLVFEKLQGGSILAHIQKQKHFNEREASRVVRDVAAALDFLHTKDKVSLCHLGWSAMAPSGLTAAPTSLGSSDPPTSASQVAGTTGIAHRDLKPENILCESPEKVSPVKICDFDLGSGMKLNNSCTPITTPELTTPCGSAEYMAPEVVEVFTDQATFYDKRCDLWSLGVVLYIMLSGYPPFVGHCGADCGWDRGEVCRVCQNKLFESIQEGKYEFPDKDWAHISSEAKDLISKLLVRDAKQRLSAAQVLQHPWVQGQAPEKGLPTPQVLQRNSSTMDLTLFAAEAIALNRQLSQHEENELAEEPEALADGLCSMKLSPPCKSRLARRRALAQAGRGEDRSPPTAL
# FLT3 (human) = FLT3 (human) (UniProt P36888)
# MERTK (human) = MERTK (human) (UniProt Q12866)
# FGFR4 (human) = FGFR4 (human) (UniProt P22455)
# SRC (human) = SRC (human) (UniProt P12931)
# MAP3K10 (human) = MAP3K10 (human) (UniProt Q02779)
# ERBB4 (human) = ERBB4 (human) (UniProt Q15303)
# RPS6KA4 KD2 (human) = RPS6KA4 KD2 (human) (UniProt O75676)
# MYLK2 (human) = MYLK2 (human) (UniProt Q9H1R3)
# PKN1 (human) = PKN1 (human) (UniProt Q16512)
# MELK (human) = MELK (human) (UniProt Q14680)
# AKT1 (human) = AKT1 (human) (UniProt P31749)
# CDK4 CCND3 (human) = CDK4 CCND3 (human) (UniProt P30281+P11802)
# CDK4 CCND3 (human), sequence (P11802 whole entry, looked up): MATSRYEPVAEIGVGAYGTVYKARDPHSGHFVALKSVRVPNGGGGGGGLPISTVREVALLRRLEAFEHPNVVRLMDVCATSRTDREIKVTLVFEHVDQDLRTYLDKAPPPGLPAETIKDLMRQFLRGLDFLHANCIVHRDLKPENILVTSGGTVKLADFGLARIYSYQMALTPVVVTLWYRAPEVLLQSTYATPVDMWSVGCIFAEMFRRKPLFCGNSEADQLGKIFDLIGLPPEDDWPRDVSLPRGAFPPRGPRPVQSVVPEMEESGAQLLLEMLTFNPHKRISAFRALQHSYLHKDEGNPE
# CDK4 CCND3 (human), sequence (P30281 whole entry, looked up): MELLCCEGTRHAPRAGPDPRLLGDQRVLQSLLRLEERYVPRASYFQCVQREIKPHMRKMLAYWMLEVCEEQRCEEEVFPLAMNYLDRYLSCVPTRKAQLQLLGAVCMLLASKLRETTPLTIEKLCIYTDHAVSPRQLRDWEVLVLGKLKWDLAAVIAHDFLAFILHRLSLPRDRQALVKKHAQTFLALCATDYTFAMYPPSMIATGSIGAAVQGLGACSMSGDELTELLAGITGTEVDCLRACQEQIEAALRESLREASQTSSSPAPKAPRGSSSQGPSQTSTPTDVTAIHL
# FYN (human) = FYN (human) (UniProt P06241)
smiles,measurement,setting,value
Fc1ccc(-c2nc3n(c2-c2ccncc2)CCS3)cc1,residual activity,DCLK2 (human),97.4%
same,residual activity,DAPK1 (human),100%
same,residual activity,CLK2 (human),105%
same,residual activity,PHKG1 (human),94.6%
same,residual activity,WNK2 (human),104%
same,residual activity,RPS6KB2 (human),85.6%
same,residual activity,HIPK4 (human),89.7%
same,residual activity,CSNK1G3 (human),97.9%
same,residual activity,[1],107%
same,residual activity,AURKB (human),98.5%
same,residual activity,TSSK2 (human),93.2%
same,residual activity,MAPK9 (human),90.6%
same,residual activity,CDK7 CCNH MNAT1 (human),95%
same,residual activity,BLK (human),97.8%
same,residual activity,DYRK4 (human),106%
same,residual activity,MAP3K9 (human),83.6%
same,residual activity,EPHB1 (human),106%
same,residual activity,GRK5 (human),103%
same,residual activity,INSR (human),91.2%
same,residual activity,RIPK2 (human),84.7%
same,residual activity,INSRR (human),102%
same,residual activity,PIM1 (human),104%
same,residual activity,ROCK2 (human),99.1%
same,residual activity,STK11 (human),93.8%
same,residual activity,[2],123%
same,residual activity,TEC (human),130%
same,residual activity,KDR (human),95.7%
same,residual activity,CSNK1E (human),20%
same,residual activity,[3],102%
same,residual activity,FLT3 (human),94.7%
same,residual activity,MERTK (human),88.7%
same,residual activity,FGFR4 (human),82.8%
same,residual activity,SRC (human),98.2%
same,residual activity,MAP3K10 (human),101%
same,residual activity,ERBB4 (human),83%
same,residual activity,RPS6KA4 KD2 (human),88.8%
same,residual activity,MYLK2 (human),101%
same,residual activity,PKN1 (human),101%
same,residual activity,MELK (human),102%
same,residual activity,AKT1 (human),105%
same,residual activity,CDK4 CCND3 (human),94.9%
same,residual activity,FYN (human),108%
COc1cc2ncnc(Nc3ccc(Oc4ccccc4)cc3)c2cc1OC,residual activity,DCLK2 (human),99.5%
same,residual activity,DAPK1 (human),105%
same,residual activity,CLK2 (human),103%
same,residual activity,PHKG1 (human),91.8%
same,residual activity,WNK2 (human),88.1%
same,residual activity,RPS6KB2 (human),97.4%
same,residual activity,HIPK4 (human),91.8%
same,residual activity,CSNK1G3 (human),99.4%
same,residual activity,[1],107%
same,residual activity,AURKB (human),50.9%
same,residual activity,TSSK2 (human),103%
same,residual activity,MAPK9 (human),99%
same,residual activity,CDK7 CCNH MNAT1 (human),102%
same,residual activity,BLK (human),9.95%
same,residual activity,DYRK4 (human),97.3%
same,residual activity,MAP3K9 (human),57.7%
same,residual activity,EPHB1 (human),108%
same,residual activity,GRK5 (human),97.4%
same,residual activity,INSR (human),88.8%
same,residual activity,RIPK2 (human),55.5%
same,residual activity,INSRR (human),102%
same,residual activity,PIM1 (human),102%
same,residual activity,ROCK2 (human),99.3%
same,residual activity,STK11 (human),93.6%
same,residual activity,[2],124%
same,residual activity,TEC (human),43.3%
same,residual activity,KDR (human),92.1%
same,residual activity,CSNK1E (human),100%
same,residual activity,[3],98.9%
same,residual activity,FLT3 (human),3.23%
same,residual activity,MERTK (human),51.2%
same,residual activity,FGFR4 (human),77.8%
same,residual activity,SRC (human),82.8%
same,residual activity,MAP3K10 (human),96.7%
same,residual activity,ERBB4 (human),8.79%
same,residual activity,RPS6KA4 KD2 (human),94.4%
same,residual activity,MYLK2 (human),101%
same,residual activity,PKN1 (human),97.3%
same,residual activity,MELK (human),101%
same,residual activity,AKT1 (human),107%
same,residual activity,CDK4 CCND3 (human),98.4%
same,residual activity,FYN (human),26.9%
COc1ccc(Cl)cc1NC(=O)Nc1cc(C)nc2ccccc12,residual activity,DCLK2 (human),96.5%
same,residual activity,DAPK1 (human),93.3%
same,residual activity,CLK2 (human),97.7%
same,residual activity,PHKG1 (human),102%
same,residual activity,WNK2 (human),104%
same,residual activity,RPS6KB2 (human),106%
same,residual activity,HIPK4 (human),109%
same,residual activity,CSNK1G3 (human),95.7%
same,residual activity,[1],99.7%
same,residual activity,AURKB (human),95.9%
same,residual activity,TSSK2 (human),94%
same,residual activity,MAPK9 (human),105%
same,residual activity,CDK7 CCNH MNAT1 (human),101%
same,residual activity,BLK (human),99.8%
same,residual activity,DYRK4 (human),98.9%
same,residual activity,MAP3K9 (human),98.6%
same,residual activity,EPHB1 (human),102%
same,residual activity,GRK5 (human),109%
same,residual activity,INSR (human),93.2%
same,residual activity,RIPK2 (human),82.7%
same,residual activity,INSRR (human),100%
same,residual activity,PIM1 (human),98.1%
same,residual activity,ROCK2 (human),96.7%
same,residual activity,STK11 (human),103%
same,residual activity,[2],96.7%
same,residual activity,TEC (human),110%
same,residual activity,KDR (human),92.8%
same,residual activity,CSNK1E (human),86.4%
same,residual activity,[3],101%
same,residual activity,FLT3 (human),94.4%
same,residual activity,MERTK (human),93.3%
same,residual activity,FGFR4 (human),102%
same,residual activity,SRC (human),99%
same,residual activity,MAP3K10 (human),94.9%
same,residual activity,ERBB4 (human),97.8%
same,residual activity,RPS6KA4 KD2 (human),94%
same,residual activity,MYLK2 (human),99.3%
same,residual activity,PKN1 (human),104%
same,residual activity,MELK (human),106%
same,residual activity,AKT1 (human),95.8%
same,residual activity,CDK4 CCND3 (human),98.5%
same,residual activity,FYN (human),100%
